Data reported in a melting point compilation (Tetko et al.; mined from patent text by program, amines drawn as free bases though some values may be those of a salt).

| SMILES | melting point [°C] |
| --- | --- |
| CCCCCCCCCCCCCCCCOCC(O)CN1CCC(C)CC1 (configuration not stated) | 84 to 85 |
| CCCCCCCCCCCCCCCC(=O)N[C@@H](CSC(=O)CCCCCCCCCCCCCCC)C(=O)O | 82 to 84 |
| N#CN=C1CCCN1C1=CC(CF)(CF)Oc2ccc(C(F)(F)C(F)(F)F)cc21 | 207 to 210 |
| CC(=O)SCC(C)C(=O)N(CC(=O)O)C1CCCCCC1 (configuration not stated) | 116 to 117 |
| CS(=O)(=O)c1c(Sc2ccccc2)cccc1C(=O)O | 185 to 186 |
| COc1cc([N+](=O)[O-])c(C)cc1Br | 91 to 92 |
| NC(=O)C1C(CSSCC2C(C(N)=O)N(Cc3ccccc3)C(=O)N2Cc2ccccc2)N(Cc2ccccc2)C(=O)N1Cc1ccccc1 (configuration not stated) | 208 to 211 |
| CC(C)Nc1cccnc1N1CCN(C(=O)c2ccc(C(=O)NCCO)cc2)CC1 | 182 to 184 |
| CN(C(=O)C(F)(F)F)C(C(=O)O)c1ccc(Cl)cc1 (configuration not stated) | 117 to 118 |
| CC(=O)OCCCc1c(C)[nH]c(C(=O)OC(C)(C)C)c1C | 73 |
| Cn1nnc(-c2ccc3c(c2)S(=O)(=O)c2ccccc2C3=O)n1 | 204 to 205 |
| COc1ccc(NC(=O)N(Cc2ccccc2)Cc2cccnc2)c(NC(=O)c2cc(C(C)(C)C)c(O)c(C(C)(C)C)c2)c1 | 120 to 128 |
| CC1(C)OCC(=O)Nc2ccc(-c3cc(F)cc(C#N)c3)cc21 | 238 to 239 |
| CCCc1ccnc(C(N)=O)c1N | 139 to 141 |
| COc1nc(C)nc(N2CCc3ccccc3CC2)c1[N+](=O)[O-] | 123 to 128 |
| CCn1c(=O)c2c(nc(/C=C/c3ccc(OC(=O)c4ccccc4)c(OC)c3)n2C)n(CC)c1=O | 234 to 236 |
| O=C(c1ccc(Oc2ccc(Oc3ccc(C(=O)C(Cl)(Cl)Cl)cc3)cc2)cc1)C(Cl)(Cl)Cl | 215 to 217 |
| Nc1c(F)c(N2CCC(c3ccccn3)C2)c(F)c2c1c(=O)c(C(=O)O)cn2C1CC1 (configuration not stated) | 206 to 208 |
| NC(=O)c1ccc(C(=O)N2Cc3cccn3Cc3ccccc32)cc1 | 226 to 228 |
| Cc1c(C)c(O)c([N+](=O)[O-])c(C)c1O | 105 to 106 |
| COc1ccc(Cl)cc1NC(=NN)c1cc(C(F)(F)F)cc(C(F)(F)F)c1 | 117 to 120 |
| Cc1n[nH]c(=O)n1N=Cc1cccnc1 | 208 to 210 |
| COc1cccc2c(N3CCNCC3)cc(C(F)(F)F)nc12 | 130 |

| SMILES | melting point [°C] |
| --- | --- |
| COCCCn1nnnc1-c1cc(-c2ccccc2C(F)(F)F)c(O)cc1O | 207 to 210 |
| COc1nc(NC(=O)NS(=O)(=O)c2ccccc2S(=O)(=O)N2CCC2)nc(OC)n1 | 175 to 177 |
| Cc1cnc(CCCC#N)c([N+](=O)[O-])c1 | 53 to 55 |
| Cc1ccc(-c2ccc3c(c2)C=C(C(=O)Nc2ccc(CN(C)C4CCOCC4)cc2)CC(c2ccccc2)O3)cc1 (configuration not stated) | 178 to 179 |
| CC(=O)NC(CC(=O)N[C@@H]1CN2C(=O)N(c3cc(Cl)nc(Cl)c3)C(=O)[C@@]2(Cc2ccc(OC(F)(F)F)cc2)C1)C(N)=O (some centres not stated) | 153 |
| CON1C=C2N=NC3=C(N2C1)N(C(C)C)CC=C3 | 159 to 162 |
| Cc1sc(C)c(Cc2nc3c(F)c(F)cc(F)c3s2)c1CC(=O)O | 170 to 171 |
| C[C@H]1C(=O)OCN1C(=O)OC(C)(C)C | 64 to 67 |
| Cc1nsc(SCC2=C(C(=O)OC(c3ccccc3)c3ccccc3)N3C(=O)C(N)(N)C3SC2)n1 (configuration not stated) | 157 to 159 |
| O=C(CN1CCN(C(c2ccc(F)cc2)c2ccc(F)cc2)CC1)Nc1cccc2ccccc12 | 173 |
| CN1CC(c2ccc(S(C)(=O)=O)cc2)=C(c2ccc(Br)cc2)C1=O | 161 to 163 |
| COc1ccc(-c2nc(-c3ccc(OC)cc3)nc(-c3ccccc3O)n2)cc1 | 205 to 206 |
| NS(=O)(=O)c1c(C(F)F)nsc1OCC(F)(F)F | 102 to 104 |
| CC(C)C1=Cc2cc(OCC(=O)O)c(Cl)c(Cl)c2C1=O | 176 |
| O=[N+]([O-])c1ccccc1C#Cc1c(F)c(F)nc(F)c1F | 109 to 110 |
| NC(=O)C=Cc1cccs1 | 153 |
| Nc1ccc(CP2(=O)OCCCCO2)cc1 | 128 to 129 |
| COC1=C(OC)C(=O)C2=C(CC(CCCCCCCCN3CCN(Cc4ccccc4)CC3)C2)C1=O | 80 to 81 |
| CC(C)COCCOc1ccc(OCC(O)CNCCNC(=O)N2CCOCC2)cc1 (configuration not stated) | 95 to 96 |
| CC(C)CNC(=NC#N)Nc1cccnc1 | 148 to 149 |
| CN1CCN(c2ccc3c(=O)n4c(nc3c2)C(=O)c2cc(F)ccc2-4)CC1 | 242 to 244 |
| COc1ccc(S(=O)(=O)C2(C(=O)O)CCN(C(C)C)CC2)cc1 | 204 |
| CSc1ccc2nc(NN)sc2c1 | 173 to 176 |

| SMILES | melting point [°C] |
| --- | --- |
| CCOc1ccccc1OCC(O)CN (single isomer, unassigned; (-)) | 87 |
| O=C1CSc2ccc(S(=O)(=O)Cl)cc2N1 | 165 to 167 |
| Cc1ccc(S(=O)(=O)N(Cc2ccccc2)N=O)cc1 | 92 to 93 |
| COc1ccc(-c2nc(C(=O)NCCc3ccccn3)sc2-c2ccc(OC)cc2)cc1 | 130 to 132 |
| O=C(Cn1cccc(NC(=O)OCc2ccccc2)c1=O)NC(Cc1ccccc1)C(=O)C(F)(F)F (configuration not stated) | 113 to 117 |
| COc1nc2cc([N+](=O)[O-])c(C)c(C(=O)Cl)c2nc1OC | 162 to 164 |
| N#Cc1ccccc1-c1ccc(CBr)c(Br)c1 | 152 to 153 |
| COc1ccc(-c2[nH]nc3c2C(=O)c2c(NC(=O)CN4CCN(CCN)CC4)cccc2-3)cc1 | > 300 |
| OC1CCc2c(F)cc(F)cc2C1 (configuration not stated) | 85 |
| C=C1CCCC2CCC3C(CCC4(C)C3C(C#N)C35OCCOC43OCCO5)C12C (configuration not stated) | 229 |
| O=c1c2ccccc2nnn1CCCN1CCC(c2c[nH]c3ccccc23)CC1 | 60 |
| COC(=O)C1CC(C(=O)OC)NC(=O)N1 (configuration not stated) | 178 to 179 |
| COCCc1nc2cnc3cc(Br)cnc3c2n1CC(C)(C)O | 125 |
| CC(NC1=NS(=O)(=O)c2cc(Br)ccc2N1)C(C)(C)C (configuration not stated) | > 220 |
| COc1cc(CC(=O)NCC(=O)N(CCC(=O)O)Cc2ccc(OC)c(OC)c2)ccc1NC(=O)Nc1ccccc1C | 172 to 174 |
| O=S1(=O)N=CN(C2CC2)c2cc(I)ccc21 | 304 to 307 |
| O=C(O)c1ccc(COc2ccc3c(c2)CCN(C2CCN(C4CCC4)CC2)C3=O)cc1 | 269 to 270 |
| CS(=O)(=O)N1CCN([C@@H](CNS(=O)(=O)c2ccc(OCc3noc4ccccc34)cc2)C(=O)NO)CC1 | 107 |
| O=Cc1c(OCCCCCCC(=O)N(Cc2ccccc2)Cc2ccccc2)cc(Cl)cc1[N+](=O)[O-] | 76 to 77 |
| CCCC(=O)OCC1OC(n2cnc3c(OC)nc(N)nc32)C(O)C1O (configuration not stated) | 105 |
| C=Cc1ccc2c(c1)CCN2C(=O)OC(C)(C)C | 85.5 to 88.6 |

More lines, now with the values ahead:

| melting point [°C] | SMILES |
| --- | --- |
| 70 to 71 | O=C(NCCCc1cccc2oc(CCCCc3ccccc3)cc12)C1CC1 |
| 58 to 61 | COC(=O)c1cccc(OC)c1I |
| 182 to 183 | CC(=O)n1cc(C#N)c(-c2ccc(F)c(Cl)c2F)c1 |
| > 250 | CCOC(=O)c1cc2cc[nH]c2cc1N |
| 331 | O=C1NC(NCC2CC2)=N/C1=C\c1c[nH]c2ncc(N3CCOCC3)cc12 |
| 200 | COc1ccc(C(=O)c2[nH]c(=S)[nH]c2C)cc1 |
| 245 to 246 | Cc1cnc(C(=O)c2[nH]c3ccc(Cl)cc3c2CC(=O)O)cc1C |
| 194 to 196 | CCOC(=O)c1ccc(-n2cnnc2S)cc1 |
| 233 to 235 | Cc1ccccc1C(=O)Nc1ccc(C(=O)N2CCCC(CN)c3ccccc32)cc1 (configuration not stated) |
| 185 to 186 | OCc1cc(-c2ccc(Cl)cc2)nc2ccnn12 |
| 76 to 77 | CCOC(=O)c1ccc(N)c(C)c1 |
| 119 to 120 | COc1cc(CC(=O)NCCCc2ccc(C)c(C)c2)ccc1OCCO |
| 144 to 145 | CCOC(=O)C(=O)CC(=O)c1cn(Cc2ccc(F)cc2)c2cc(Cl)c(Cl)cc2c1=O |
| 82 | CCc1cc(C(=O)Nc2c(C)cccc2C)no1 |
| 208 to 210 | CCC(=O)c1ncc(Nc2cc(C)[nH]n2)nc1Nc1ccc(F)cc1 |
| 112 to 135 | Cc1onc(-c2ccccc2)c1C(=O)NCCCN1CCN(c2ccc(F)cc2OCC(F)(F)F)CC1 |
| 158 to 159 | CC(C)C1Sc2c(Cl)cccc2NC1=O (configuration not stated) |
| 155 to 156 | CCOC(=O)c1cn(CCF)c2c(F)c(C(C)=O)c(F)cc2c1=O |

| melting point [°C] | SMILES |
| --- | --- |
| 99 to 105 | CNC(=O)c1cccc(F)c1Nc1nc(Nc2ccc3c(c2)CCN(CCOC)CC3)ncc1Br |
| 95 to 97 | CCOC(=O)c1cc2cccc(OCC(O)CCl)c2o1 (configuration not stated) |
| 82 to 83 | N#CCCNC(=O)c1cccc(-c2cccc(Oc3ccccc3Cl)n2)c1 |
| 253 to 255 | COc1cc2[nH]c(=O)c3ccccc3c2cc1OC |
| 134 to 136 | Cc1cccc(N(C)C(=S)Oc2ccc(Cl)c(C)c2)n1 |
| 128 to 130 | CCOc1cccc(N(C(=O)CCC(=O)O)c2cc(C(C)(C)C)c(O)c(C(C)(C)C)c2)c1 |
| 100 | CCOC(=O)[C@@](CC)(CCCNCCc1c[nH]c2ccc(F)cc12)C(OCC)OCC |
| 93 to 94 | COc1cc(O)cc(-c2cc3ccc(O)cc3o2)c1CC=C(C)C |
| 109 to 110 | CCc1ccc2c(c1)c1cc(OC)cc3c(=O)c(Cc4cccnc4)cn2c31 |
| 199 to 206 | Cc1[nH]c2cccnc2c1-c1ccc(F)cc1 |
| 131 to 132 | N#CCNC(=O)c1ccnc(Cl)c1 |
| 211 to 213 | Cc1nc2ccccc2cc1NC(=S)N1CCN(c2cc(F)cc(F)c2)CC1 |
| 106 to 107 | COC(=O)C1=CCN=C(c2ccccc2F)c2cc(Cl)ccc21 |
| 187 to 190 | COc1ccc(/C=C/c2nc3ccccc3c(=O)o2)cc1OC(C)=O |
| 190 to 192 | CCOC(=O)NN=Cc1nc(Cc2ccccc2)[nH]c1C |
| 67 to 68 | CCOC(=O)Cc1cccc(OCc2ccc3oc([N+](=O)[O-])c(-c4ccccc4)c3c2)c1 |
| 271 to 274 | O=C(CO)Nc1cc(-c2ccncc2)c[nH]c1=O |
